Experiments:
[1] = HeLa cell cytotoxicity, Alamar blue assay; type: cell-based; conditions: human; HeLa cells, ~65 h incubation plus 5 h Alamar Blue
Protocol: HeLa cell cytotoxicity studies were carried out as described previously. Briefly, the cells were cultured in DMEM supplemented with 10% fetal calf serum and 2 mM L-glutamine. Cells were plated at initial cell concentration of 2 × 10^4 cells/well and incubated with the compounds for ∼65 h prior to addition of Alamar Blue solution for further 5 h.

[2] = tested on: L. infantum JPCM5 MCAN/ES/98/LLM-87 promastigotes; assay: L. infantum promastigote assay (Alamar blue); type: cell-based, Leishmania infantum; conditions: for S.I (CC50/IC50), L. infantum promastigote: HeLa CC50 / L. infantum promastigote EC50; for EC50: 72 h, Alamar blue
Protocol: (§1) Anti-leishmanial activity of these analogues was determined by evaluating their inhibition activity against both promastigote, amastigote forms of Leishmania infantum and Leishmania donovani strains. […] Anti-leishmanial drugs miltefosine and pentamidine were used as standards for comparison purpose.
Anti-promastigote activity of these reported β-carboline derivatives was determined by Alamar blue assay method.
(§2) L. donovanipromastigotes were cultured at 37 °C in M199 medium supplemented with 10% heat-inactivated fetal calf serum. L. infantum JPCM5 MCAN/ES/98/LLM-87 promastigotes were cultured at 26 °C in modified Eagle’s medium (HOMEM). Parasites were incubated with serial dilutions of compounds for 72 h, followed by Alamar blue-based assay as previously described.

[3] = tested on: L. infantum JPCM5 MCAN/ES/98/LLM-87 axenic amastigotes; assay: L. infantum axenic amastigote assay (Alamar blue); type: cell-based, Leishmania infantum; conditions: for S.I (CC50/IC50), L. infantum axenic amastigote: HeLa CC50 / L. infantum axenic amastigote EC50; for EC50: Leishmania infantum, 72 h, Alamar blue
Protocol: Alamar blue assay method was used to determine inhibition potential of these β-carboline derivatives against (human life stage forms) axenic amastigotes.
(§3) L. donovaniLdBOB axenic amastigotes or L. infantum JPCM5 MCAN/ES/98/LLM-87 were cultured at 37 °C in modified Eagle’s medium (HOMEM; L. infantum) and axenic amastigotes were incubated for 72 h with compounds, followed by Alamar blue-based assay as previously described.

[4] = tested on: L. donovani promastigotes; assay: L. donovani promastigote assay (Alamar blue); type: cell-based, Leishmania donovani; conditions: for S.I (CC50/IC50), L. donovani promastigote: HeLa CC50 / L. donovani promastigote EC50; for EC50: Leishmania donovani, 72 h, Alamar blue
Protocol: as §1
L. donovani promastigote inhibition potency of these reported β-carboline derivatives was determined by Alamar blue assay method.
as §2

[5] = tested on: L. donovani LdBOB axenic amastigotes; assay: L. donovani axenic amastigote assay (Alamar blue); type: cell-based, Leishmania donovani; conditions: for S.I (CC50/IC50), L. donovani axenic amastigote: HeLa CC50 / L. donovani axenic amastigote EC50; for EC50: Leishmania donovani, 72 h, Alamar blue
Protocol: as §3

[6] = tested on: L. donovani LdBOB intracellular amastigotes in PMA differentiated THP-1 cells; assay: Intra macrophage L. donovani (amastigote) assay in THP-1 cells; type: cell-based, Leishmania donovani; conditions: for S.I (CC50/IC50), L. donovani intracellular amastigote: HeLa CC50 / L. donovani intracellular amastigote EC50; for EC50: Leishmania donovani, THP-1, 72 h, THP-1 macrophages, 72 h, microscopy readout
Protocol: Although, axenic amastigotes assay most commonly used to screen new leishmanial agents are different from intracellular amastigotes in terms of protein expression and drug susceptibility. […] THP-1 (human monocytic leukemia) cells were a kind gift from Dr Susan Wylie (Dundee) and maintained in minimal essential medium plus 10% (vol/vol) FBS. […] Briefly, THP-1 cells (20,000 per well, 200 μL) were plated into 96 well plates in presence of 10 nM PMA and incubated at 37 °C in 5% CO2 atmosphere for 75 h. […] Any remaining extracellular amastigotes were removed and the adhered cells were washed with the same supplemented PBS solution as above. Pre-aliquoted compounds in a serial dilution were added from another plate, such that the total well volume was 200 μL and incubated for further 72 h. Cells were fixed with 100% methanol, stained with Giemsa and examined microscopically.

[7] = introduction statement; cited from earlier work

Row | EC50 ([2]; Leishmania infantum) [µM] | EC50 [3] [µM] | EC50 [4] [µM] | EC50 [5] [µM] | EC50 [6] [µM] | melting point [°C] | EC50 [2] [µM] | Compound | CC50 [1] [µM] | S.I (CC50/IC50), L. infantum promastigote [2] | S.I (CC50/IC50), L. infantum axenic amastigote [3] | S.I (CC50/IC50), L. donovani promastigote [4] | S.I (CC50/IC50), L. donovani axenic amastigote [5] | S.I (CC50/IC50), L. donovani intracellular amastigote [6] | half-life [7] [h]
1 | 13.8 ± 0.9 | 15.3 ± 1.1 | 8.42 ± 0.45 | 6.4 ± 0.2 | 11.8 ± 0.7 | 168 to 170 | – | COc1ccccc1N1CCN(C(=O)c2cc3c4ccccc4n(C)c3c(-c3ccccc3)n2)CC1 [7f, (4-(2-methoxyphenyl)piperazin-1-yl)(9-methyl-1-phenyl-9H-pyrido[3,4-b]indol-3-yl)methanone] | > 500 | >36.2 | >32.7 | >59.4 | 78.1 | 42.4 | –
2 | 1.47 ± 0.32 | 1.9 ± 0.2 | 5.02 ± 0.36 | 3.8 ± 0.5 | 6.3 ± 0.3 | 160 to 162 | – | Cn1c2ccccc2c2cc(C(=O)N3CCN(c4ccc(Cl)cc4)CC3)nc(-c3ccccc3)c21 [7g, (4-(4-chlorophenyl)piperazin-1-yl)(9-methyl-1-phenyl-9H-pyrido[3,4-b]indol-3-yl)methanone] | > 500 | >340.1 | >263.2 | >99.6 | 131.6 | 79.4 | –
3 | 19.7 ± 1.7 | 14.6 ± 2.9 | 13.1 ± 1.5 | 7.5 ± 0.4 | 15.4 ± 0.9 | 200 to 202 | – | Cn1c2ccccc2c2cc(C(=O)N3CCN(c4ccc([N+](=O)[O-])cc4)CC3)nc(-c3ccccc3)c21 [7j, (9-methyl-1-phenyl-9H-pyrido[3,4-b]indol-3-yl)(4-(4-nitrophenyl)piperazin-1-yl)methanone] | > 500 | >25.3 | >34.2 | >38.2 | 66.7 | 32.5 | –
4 | 17.2 ± 0.82 | 15 ± 1.3 | 12.4 ± 1.4 | 9.3 ± 0.5 | 10.1 ± 1.1 | 188 to 190 | – | Cn1c2ccccc2c2cc(C(=O)N3CCN(c4ccc(F)cc4)CC3)nc(-c3ccccc3)c21 [7k, (4-(4-fluorophenyl)piperazin-1-yl)(9-methyl-1-phenyl-9H-pyrido[3,4-b]indol-3-yl)methanone] | > 500 | >29.1 | >33.3 | >40.3 | 53.8 | 49.5 | –
5 | 12.4 | 4.8 ± 0.8 | 3.12 ± 0.16 | 2.8 ± 0.4 | 6.4 ± 0.3 | – | 12.6 ± 1.1 | CCCCCCCCCCCCCCCCOP(=O)([O-])OCC[N+](C)(C)C [Miltefosine, reference compound] | – | – | – | – | – | – | 150
